In PubChem BioAssay (NCI) one finds TGI and GI50 data, which are given here for 15 compounds.

SMILES strings stand for the structures. “And” between values parts separate entries of the source, which are not always exact repeats. Equal values may be shown once.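 Method: 48-hour compound exposure of cells in 96-well plates, five concentrations, linear interpolation of endpoints. GI50 = concentration required for 50% inhibition of growth. Definition used: TGI = concentration required for complete inhibition of growth.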 Some results are limits rather than exact numbers.

Among the test systems are MALME-3M melanoma; M14 melanoma; CCRF-CEM leukemia; NCI-H23 lung; SF-539 CNS; NCI-H226 lung; SK-OV-3 ovarian; MDA-MB-435; PC-3 prostate.
What all share (assay): inhibition of tumour cell growth, NCI panel, 48 h

Consider `O=C1NC2(C=Cc3c(ccc4ccccc34)O2)Oc2ccccc21` (configuration not stated), for which the TGI in the assay with MALME-3M melanoma was over 100 µM; in the assay with M14 melanoma, over 100 µM; in the assay on CCRF-CEM leukemia it was 32.1 µM; in the assay with NCI-H23 lung it was 92.3 µM; with SF-539 CNS it was 50.2 µM; in the assay on NCI-H226 lung it was 74.1 µM.
With `COC[C@@H](Cc1ccc(OC)c(OC)c1)[C@@H](COC)Cc1ccc(OC)c(OC)c1`, the TGI with MALME-3M melanoma, with M14 melanoma, with CCRF-CEM leukemia, in the assay with SK-OV-3 ovarian, in the assay on NCI-H23 lung and in the assay on SF-539 CNS was over 100 µM in each case.
With `CC1(C)C2CCC(N)(C2)C1O` (configuration not stated), the TGI with M14 melanoma, in the assay on CCRF-CEM leukemia, with SK-OV-3 ovarian, with NCI-H23 lung, in the assay on MDA-MB-435 and in the assay on PC-3 prostate was over 100 µM throughout. Further, in the assay on NCI-H226 lung, the TGI is over 100 µM.
On to `CC(C)N(C(C)C)P(OCCC#N)OC1CC(n2cnc3c(=O)[nH]cnc32)OC1COC(=O)NCCCCCCNC(=O)OC(C)(C)c1ccc(-c2ccccc2)cc1` (configuration not stated), for which the TGI in the assay with MALME-3M melanoma was 89.4 µM; with M14 melanoma it was 34.6 µM; in the assay on CCRF-CEM leukemia, 43.8 µM; in the assay with SK-OV-3 ovarian, over 100 µM; with NCI-H23 lung it was 50.5 µM; with SF-539 CNS, 44.3 µM. This compound yielded a TGI in the assay with NCI-H226 lung of 55.2 µM.
Take `COC(=O)C1C2CC3C(OC(=O)C31)C2OC(=O)[C@](OC)(c1ccccc1)C(F)(F)F` (some centres not stated): the TGI in the assay with MALME-3M melanoma, in the assay with M14 melanoma, in the assay on CCRF-CEM leukemia, in the assay with SK-OV-3 ovarian, with NCI-H23 lung and in the assay on SF-539 CNS was over 100 µM throughout. The compound also yielded a TGI in the assay with NCI-H226 lung of over 100 µM.
For `CCN(CC)CCNc1ccc2ncn3c4cc(=O)ccc4c(O)c1c23`, the TGI with MALME-3M melanoma was 14.9 µM; in the assay on M14 melanoma it was 14.4 µM; with CCRF-CEM leukemia, 16.8 µM; in the assay with SK-OV-3 ovarian it was 41.9 µM; in the assay with NCI-H23 lung it was 14.6 µM; with SF-539 CNS, 15.1 µM. In addition, the TGI in the assay on NCI-H226 lung turned out to be 11.4 µM.
Regarding `CCCCNC(=S)Nc1nc(C(=O)NNC(=O)c2ccccc2)cs1`, the TGI with MALME-3M melanoma is 38.8 µM; with M14 melanoma it was 28.6 µM; with CCRF-CEM leukemia, over 100 µM; with SK-OV-3 ovarian it was 35.3 µM; in the assay with MDA-MB-435 it was 47.8 µM; in the assay on PC-3 prostate, 39.7 µM. The compound also had a TGI in the assay on NCI-H226 lung of 67.8 µM.
`COc1ccccc1N=C1SCCN1C(=S)Nc1ccc(S(=O)(=O)/N=C/N(C)C)cc1`: the TGI in the assay with M14 melanoma is over 100 µM; with CCRF-CEM leukemia, over 100 µM; with SK-OV-3 ovarian it was over 100 µM; in the assay on NCI-H23 lung, 95.9 µM; with MDA-MB-435, 76.9 µM; in the assay with SF-539 CNS, over 100 µM. For the same compound, the TGI in the assay on PC-3 prostate and in the assay on NCI-H226 lung was over 100 µM throughout.
`c1ccc(C2[C@@H]3CCCc4ccccc4C3=NN2c2ccccc2)cc1` (some centres not stated): the TGI in the assay on MALME-3M melanoma, with CCRF-CEM leukemia, in the assay with NCI-H23 lung and with NCI-H226 lung was over 100 µM each time.
Consider `C=CCC(SC)C1=C(C)C(=O)c2ccccc21` (configuration not stated), for which the TGI in the assay with MALME-3M melanoma, in the assay with M14 melanoma, with CCRF-CEM leukemia, in the assay on SK-OV-3 ovarian, in the assay with NCI-H23 lung and in the assay on MDA-MB-435 was over 10 µM in each case. Also, the TGI in the assay with SF-539 CNS, in the assay with PC-3 prostate and in the assay on NCI-H226 lung was over 10 µM each time.
For the compound `CCCCCCCCCCSCC(CO)NC(=O)/C=C/c1c(C)[nH]c(=O)[nH]c1=O` (configuration not stated), the TGI with MALME-3M melanoma was 6.28 µM and 2.78 µM; in the assay with CCRF-CEM leukemia it was 3.97 µM and 2.97 µM; in the assay with SK-OV-3 ovarian, over 50 µM; with NCI-H23 lung, 14.3 µM and > 50 µM; with SF-539 CNS, over 36.5 µM; in the assay with NCI-H226 lung, > 50 µM and 12.4 µM. Further, the GI50 with SK-OV-3 ovarian was 1.82 µM and 7.04 µM; in the assay with NCI-H23 lung, 1.76 µM and 5.54 µM; with NCI-H226 lung, 2180 nM.
On to `COc1ccc(C2C(Cl)C(=O)N2NC(=O)Cc2ccccc2)cc1OC` (configuration not stated), for which the TGI with MALME-3M melanoma, with M14 melanoma, in the assay with CCRF-CEM leukemia, with SK-OV-3 ovarian, in the assay on NCI-H23 lung and with NCI-H226 lung was over 100 µM in each case.
In the case of `O=C1C[C@H](c2ccc(O)c(O)c2)Oc2cc(O)cc(O)c21`, the TGI in the assay with MALME-3M melanoma, in the assay on M14 melanoma, in the assay on CCRF-CEM leukemia, in the assay on SK-OV-3 ovarian, in the assay on NCI-H23 lung and with SF-539 CNS was over 100 µM each time. In addition, the TGI with NCI-H226 lung was over 100 µM.
As to `CC(=O)n1ccc2c(Cl)ncnc21`, the TGI in the assay with M14 melanoma, in the assay on CCRF-CEM leukemia, with SK-OV-3 ovarian, with NCI-H23 lung and in the assay on SF-539 CNS was over 100 µM throughout.
As for `c1ccc(CCn2cncn2)cc1`, the TGI in the assay with MALME-3M melanoma, in the assay with M14 melanoma, with CCRF-CEM leukemia, in the assay with SK-OV-3 ovarian, in the assay on NCI-H23 lung and in the assay with SF-539 CNS was over 100 µM throughout. The same compound displayed a TGI with NCI-H226 lung of over 100 µM.
